Test results reported in patent publication US20200214324A1, “Masking Bitter Flavors” (Board of Supervisors of Louisiana State University and …, priority 2009, published 2020).
Entries after “also recorded” stand apart in the source; their conditions may differ.

Columns and labels:
[1] = tasting of coconut water with mogroside; assay type: in vivo; conditions: plain + 200 ppm mogroside (plain: bitter)
Source text: (§1) Additional examples of the use of Mogroside V to alter the flavors of various consumables, and the experimental results obtained, are summarized in Table I: […]

[2] = tasting of acai products with mogroside; assay type: in vivo
Source text: Acai berries have a bitter off-flavor, which has limited the use of acai as a natural anti-oxidant. Prior methods for minimizing the bitterness of acai have included diluting the juice, adding sugar, or mixing acai with other, sweeter berries. […] The flat, tannic notes of acai were masked, and the puree flavor changed to a semi-sweet berry flavor with large, juicy top notes. The preferred concentration range was ˜200 to ˜500 ppm mogroside. […] Possible uses include any products that contain acai berry ingredients, including for example raw berries, purees, powders, flavorings, juices, ice cream (with or without glycerin), fruit fillings, smoothies, yogurts, teas, coffee, beer, salad dressing, marinades, candies, wines, liquors, other alcoholic beverages, and the like.
as §1

[3] = tasting of lima beans with mogroside in oil; assay type: in vivo; conditions: plain + 100 ppm mogroside in oil (plain: beany)
Source text: as §1

[4] = tasting of Hominex amino acid beverage with mogroside; assay type: in vivo; conditions: for off-flavors, chalkiness, pastiness and bitterness compared to the unmodified beverage / mogroside-associated off flavor: Hominex suspension
Description: For example, we added mogroside to a commercial amino acid beverage (Hominex™) at a rate of 200-1000 ppm, preferably 300-800 ppm. The Hominex™ suspension, which contains free amino acids, vitamins, minerals, and other nutrients, was prepared in accordance with the manufacturer's directions. Mogroside was then added to the dissolved medical food drink. The suspension was allowed to equilibrate for about one minute before tasting. Compared to the unmodified beverage, there was a marked reduction in the off-flavors, the chalkiness, the pastiness, and the bitterness. […] Unless additional flavors are also added, mogroside's own off-flavor can limit its use at higher concentrations. Conversely, at least for the samples we have tested to date, there may be no compelling reason to use mogroside at such higher levels anyway. Using mogroside in free amino acid-based foods can reduce or eliminate the bitter and unpleasant flavors, making them much more palatable, and enhancing patient compliance. Similar results are expected for improving the palatability of other medical foods.
as §1

[5] = tasting of vodka with mogroside; assay type: in vivo; conditions: plain + 200 ppm mogroside (plain: sharp bite)
Source text: as §1

[6] = tasting of acai ice cream with glycerine and mogroside; assay type: in vivo
Source text: as §1

[7] = tasting of pomegranate juice with mogroside; assay type: in vivo; conditions: plain + 200 ppm mogroside (plain: tannic)
Source text: as §1

[8] = tasting of cocoa powder with mogroside; assay type: in vivo; conditions: plain + 200 ppm mogroside (plain: bitter)
Source text: as §1

[9] = tasting of Ruby Red grapefruit with mogroside; assay type: in vivo
Source text: as §1

[10] = tasting of Hominex amino acid beverage with mogroside; assay type: in vivo; conditions: 9.3 g Hominex/100 ml water + 100 ppm mogroside (plain: bitter, chalky, floury)
[11] = tasting of rum with mogroside; assay type: in vivo; conditions: plain + 200 ppm mogroside (plain: sharp and bitter)
Source text: as §1

[12] = solubility of mogroside in water versus oil; assay type: physicochemical
Source text: Addition of mogroside will also help improve the flavor of other organ meats and products containing organ meats. Other methods of cooking may also be used. The concentration or amount of mogroside may vary, depending on the method of cooking used. […] By contrast, cooking foods in water may require that higher concentrations of mogroside be used than when cooking in oil, because the mogroside is soluble in the cooking liquid. Higher concentrations of mogroside may be needed to promote osmosis or diffusion into the food. Temperature and cooking time will also have an effect on uptake of mogroside: In general, more mogroside will be taken up by food when the cooking temperature is higher, and also when the cooking time is longer.

[13] = tasting of Powerade sports drink with KCl and mogroside; assay type: in vivo
Source text: as §1

[14] = tasting of soy milk with mogroside; assay type: in vivo; conditions: plain + 200 ppm mogroside (plain: beany)
Source text: as §1

[15] = vegetable oil with mogroside sprayed onto vegetables, tasting; assay type: in vivo; conditions: vegetable oil with 800 ppm mogroside sprayed on
Source text: Mogroside may also be applied to vegetables, for example as a spray or as a dipping solution. The bitter and astringent flavor notes of many vegetables are thereby reduced substantially, resulting in a smoother-tasting vegetable. Mogroside can also reduce beany notes and off-flavors in vegetables. We dispersed an aqueous or ethanol solution of mogroside into vegetable oil at a concentration of 800 ppm. The vegetable oil was then sprayed onto vegetables, either before or after cooking. […] The mogroside may be applied to vegetables from aerosols or misting solutions. It may also be used in microwaving, steaming, or boiling of vegetables, as well as other methods of cooking. […] Treating vegetables with mogroside can help to improve their acceptability.

Question: Which results are given for mogroside?
Answer: flavor [1]: sweet; flavor ([2]; Acai puree 12% Brix, plain + 500 ppm mogroside (plain: tannic)): berry-semi-sweet/fruity; flavor ([2]; Acai, 100 ppm mogroside (control: bitter, tannic)): bland, slight tannic; flavor ([2]; Acai, 200 ppm mogroside): fruity, berry semi-sweet; flavor ([2]; Acai, 300 ppm mogroside): tannic, little flavor at all; flavor ([2]; Acai, 400 ppm mogroside): jammy, slight tannic; flavor ([2]; Acai, 500 ppm mogroside): jammy, no tannin; flavor ([2]; Acai, 600 ppm mogroside): jammy, sweet after taste;; also recorded: high intensity flavor; flavor ([2]; Acai, 700 ppm mogroside): sweet; flavor ([2]; Acai, 800 ppm mogroside): too sweet; flavor ([2]; acai products, 800 ppm mogroside): strong, high-intensity sweet flavor; effect on bitterness and off-flavor of acai ([2]; mogroside added to acai berry puree): masked the bitterness and off-flavor notes; flavor [3]: semi-sweet; no; also recorded: beaniness; flavor ([4]; 9.3 g Hominex/100 ml water + 200 ppm mogroside): much less so, but still; also recorded: bitter & slightly floury; flavor ([4]; 9.3 g Hominex/100 ml water + 300 ppm mogroside): drinkable; flavor ([4]; 9.3 g Hominex/100 ml water + 400 ppm mogroside): tasteless; flavor ([4]; 9.3 g Hominex/100 ml water + 500 ppm mogroside): tasteless; flavor ([4]; 9.3 g Hominex/100 ml water + 600 ppm mogroside): slight strange taste; flavor ([4]; 9.3 g Hominex/100 ml water + 700 ppm mogroside): hint of off-note; flavor ([4]; 9.3 g Hominex/100 ml water + 800 ppm mogroside): off-flavored; flavor ([4]; 10 g Hominex/230 g water + 200 ppm mogroside (without: bad aftertaste)): drinkable; off-flavors, chalkiness, pastiness and bitterness compared to the unmodified beverage ([4]; 200 ppm mogroside): reduced; off-flavors, chalkiness, pastiness and bitterness compared to the unmodified beverage ([4]; 300 ppm mogroside): essentially eliminated; mogroside-associated off flavor ([4]; 800 ppm mogroside): pronounced; mogroside-associated off flavor ([4]; around 600 ppm mogroside): began to develop; flavor [5]: tasteless; flavor and texture ([6]; + 5% Acai + 5% glycerin + 200 ppm mogroside): not too much flavor,; also recorded: slightly soft; flavor and texture ([6]; + 5% Acai + 5% glycerin + 300 ppm mogroside): soft, sweet; flavor and texture ([6]; + 5% Acai + 5% glycerin + 400 ppm mogroside): sweet, not much flavor,; also recorded: some berry, soft; flavor and texture ([6]; + 10% Acai + 5% glycerin + 200 ppm mogroside): berry notes, slightly soft; flavor and texture ([6]; + 10% Acai + 5% glycerin + 300 ppm mogroside): creamy; flavor and texture ([6]; + 10% Acai + 5% glycerin + 400 ppm mogroside): sweet, jammy, creamy,; also recorded: a bit too sweet; flavor and texture ([6]; + 10% Acai + 10% glycerin + 300 ppm mogroside): creamy; flavor and texture ([6]; + 10% Acai + 10% glycerin + 400 ppm mogroside): sweet, jammy, creamy,; also recorded: a bit too sweet; flavor and texture ([6]; plain + glycerine + 300 ppm mogroside (plain + glycerine: tannic, not sweet)): soft and creamy, sweet,; also recorded: berry, mild; best texture; flavor and texture ([6]; plain ice cream + 300 ppm mogroside (only)): plain, gummy; flavor [7]: sweet; flavor [8]: chocolate; flavor ([9]; plain + 100 ppm mogroside (plain: mild sour, mild sweet, very mild aftermath)): no difference from plain; flavor ([9]; plain + 200 ppm mogroside): mild sour, sweet, high; flavor ([9]; plain + 300 ppm mogroside): sweet, hint of sour,; also recorded: aftertaste of bitterness; flavor ([9]; plain + 400 ppm mogroside): very sweet, no sour,; also recorded: hint of bitterness; flavor ([9]; plain + 600 ppm mogroside): too sweet; flavor [10]: less so, but still floury; flavor [11]: sweet; solubility in water compared with oil [12]: much higher than that in oil; flavor ([13]; plain + 2% KCl + mogroside (without mogroside: bitter)): salty; flavor ([13]; plain + 3% KCl + mogroside (without mogroside: bitter)): slightly bitter, salty; flavor [14]: decreased beany flavor; observed flavor change ([15]; artichoke hearts): reduction in bitterness and grassy flavor; observed flavor change ([15]; broccoli): reduction in sulfur and bitter notes; observed flavor change ([15]; carrots): more intense sweetness; observed flavor change ([15]; corn): sweeter corn flavor; observed flavor change ([15]; green beans): sweeter flavor and fewer beany notes; observed flavor change ([15]; lima beans): reduction in bitterness; observed flavor change ([15]; peas): shorter flavor profile
